The target of one series is Cytochrome P450 3A4 (Homo sapiens, UniProt P08684). Put plainly: Inhibition of CYP3A4 (unknown origin) using 7-benzyl-4-trifluoromethylcoumarin as fluorometric substrate. It counts as ADME.
Series [1] addresses T1, Renin (Homo sapiens, UniProt P00797).
T1 sequence (P00797 whole entry): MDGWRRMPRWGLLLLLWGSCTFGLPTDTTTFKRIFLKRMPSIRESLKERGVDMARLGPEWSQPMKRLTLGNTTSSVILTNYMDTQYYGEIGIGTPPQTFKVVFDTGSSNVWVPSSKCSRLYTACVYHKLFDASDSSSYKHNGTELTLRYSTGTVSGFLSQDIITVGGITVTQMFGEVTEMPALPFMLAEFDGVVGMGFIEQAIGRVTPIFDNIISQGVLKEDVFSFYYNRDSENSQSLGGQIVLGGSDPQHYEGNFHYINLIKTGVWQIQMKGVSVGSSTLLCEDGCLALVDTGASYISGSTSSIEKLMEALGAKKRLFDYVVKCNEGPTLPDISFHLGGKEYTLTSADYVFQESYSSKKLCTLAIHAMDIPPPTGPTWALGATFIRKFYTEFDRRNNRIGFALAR
Put plainly: Inhibition of human recombinant renin by TR-FRET assay.

The next series concerns Rattus norvegicus. Put plainly: Reduction in mean arterial blood pressure in orally dosed hypertensive telemetered double-transgenic rat overexpressing human renin and angiotensinogen. The class given is functional, organism-based.
In series [2] the target is T1, Renin. The experiment in a line: Inhibition of human recombinant renin in presence of plasma by TR-FRET assay.
Series [3] is described as follows: Ratio of permeability from basolateral to apical to side over apical to basolateral side in human Caco2 cells. The class given is ADME, cell-based. As to conditions: caco-2.

This is an account of results in ChEMBL document CHEMBL3400053, “trans-3,4-Disubstituted pyrrolidines as inhibitors of the human aspartyl protease renin. Part II: prime site exploration using an oxygen linker” (Bioorg Med Chem Lett, 2015).

Chain of Cytochrome P450 3A4 (P08684 whole entry): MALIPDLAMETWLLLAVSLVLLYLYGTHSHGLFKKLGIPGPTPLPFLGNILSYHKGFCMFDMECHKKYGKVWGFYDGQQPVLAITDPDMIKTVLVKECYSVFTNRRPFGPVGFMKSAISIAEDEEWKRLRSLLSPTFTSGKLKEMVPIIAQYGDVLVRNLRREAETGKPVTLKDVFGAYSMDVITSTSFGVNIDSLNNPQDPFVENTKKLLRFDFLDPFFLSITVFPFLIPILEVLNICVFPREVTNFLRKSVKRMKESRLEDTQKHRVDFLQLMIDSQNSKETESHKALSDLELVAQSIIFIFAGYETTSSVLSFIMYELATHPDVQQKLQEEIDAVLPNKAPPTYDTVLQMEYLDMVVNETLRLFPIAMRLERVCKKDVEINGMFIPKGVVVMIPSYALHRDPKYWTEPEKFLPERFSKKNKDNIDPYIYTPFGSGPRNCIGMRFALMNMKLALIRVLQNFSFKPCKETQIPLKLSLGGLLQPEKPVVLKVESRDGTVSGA

As to `COCCCOc1cc(C(=O)N(C[C@@H]2CNC[C@H]2OCc2cccc(-n3cccc3)c2)C(C)C)ccc1OC` (racemic), the IC50 against Cytochrome P450 3A4 is no more than 200 nM; at Renin [1], 85 nM.
`COCCCOc1cc(C(=O)N(C[C@@H]2CNC[C@H]2OC(=O)NCc2ccccc2)C(C)C)ccc1OC`: the inhibition entry in the series on Rattus norvegicus is “Dose-dependent effect”.
Take `COCCCOc1cc(C(=O)N(C[C@@H]2CNC[C@H]2Oc2ccc(C(F)(F)F)cc2)C(C)C)ccc1OC` (racemic): the half-inhibitory concentration (IC50) at Renin [1] came out at 450 nM.
On the same count and under the same terms, the value for `COCCCOc1cc(C(=O)N(C[C@@H]2CNC[C@H]2OC(=O)N(C)Cc2ccccc2N2CCCC2)C(C)C)ccc1OC` (racemic) was 80 nM; that for `COCCCOc1cc(C(=O)N(C[C@@H]2CNC[C@H]2OC(=O)N(C)Cc2cccc3c2OCO3)C(C)C)ccc1OC` (racemic) was 20 nM.
As for `COCCCOc1cc(C(=O)N(C[C@@H]2CNC[C@H]2OCc2cccc(Oc3ccccc3)c2)C(C)C)ccc1OC` (racemic), at Renin [1], the IC50 turned out to be 250 nM.
`COCCCOc1cc(C(=O)N(C[C@@H]2CNC[C@H]2OC(=O)N2CCCC2)C(C)C)ccc1OC` (racemic): on Renin [1], the IC50 was found to be 1150 nM.
Take `COCCCOc1cc(C(=O)N(C[C@@H]2CNC[C@H]2OCc2ccc3ccccc3c2)C(C)C)ccc1OC` (racemic): on Renin [1], the 50% inhibitory concentration (IC50) amounted to 90 nM.
`COCCCOc1cc(C(=O)N(C[C@@H]2CNC[C@H]2OCc2cccc(-c3cccc(C)c3)c2)C(C)C)ccc1OC` (racemic): on Renin [1], the IC50 came to 65 nM.
Take `COCCCOc1cc(C(=O)N(C[C@H]2CNC[C@@H]2OC(=O)NCc2ccccc2)C(C)C)ccc1OC`: the IC50 at Renin [1] is 9200 nM.
Turning to `COCCCOc1cc(C(=O)N(C[C@@H]2CNC[C@H]2OCc2cccc(-c3cccc(OC)c3)c2)C(C)C)ccc1OC` (racemic), the half-inhibitory concentration (IC50) at Renin [1] amounted to 350 nM.
As for `COCCCOc1cc(C(=O)N(C[C@@H]2CNC[C@H]2OC(=O)NCc2nccs2)C(C)C)ccc1OC` (racemic), the half-inhibitory concentration (IC50) on Renin [1] came to 100 nM.
As for `COCCCOc1cc(C(=O)N(C[C@@H]2CNC[C@H]2OC(=O)NCc2ccccc2)C(C)C)ccc1OC` (racemic), the IC50 on Renin [1] is 80 nM.
For `COCCCOc1cc(C(=O)N(C[C@@H]2CNC[C@H]2OCc2cccc(-c3ccccc3)c2)C(C)C)ccc1OC` (racemic), the IC50 on Renin [2] is 1100 nM; at Cytochrome P450 3A4 it was no more than 200 nM; on Renin [1] it was 145 nM.
Consider `COCCCOc1cc(C(=O)N(C[C@@H]2CNC[C@H]2OC(=O)N(C)Cc2ccccc2)C(C)C)ccc1OC` (racemic), for which the 50% inhibitory concentration (IC50) at Renin [1] was determined as 350 nM.
On to `COCCCOc1cc(C(=O)N(C[C@@H]2CNC[C@H]2OC(=O)N(C)Cc2nc3ccccc3s2)C(C)C)ccc1OC` (racemic), for which the IC50 at Renin [1] came to 30 nM.
Regarding `COCCCOc1cc(C(=O)N(C[C@@H]2CNC[C@H]2OC(=O)Nc2cccc(OC)c2)C(C)C)ccc1OC` (racemic), the IC50 on Renin [1] amounted to 300 nM.
With `COCCCOc1cc(C(=O)N(C[C@@H]2CNC[C@H]2OCc2cccc(OC)c2)C(C)C)ccc1OC` (racemic), the IC50 against Cytochrome P450 3A4 was no more than 200 nM; at Renin [1] it was 250 nM.
Turning to `COCCCOc1cc(C(=O)N(C[C@@H]2CNC[C@H]2OCc2cccc3ccccc23)C(C)C)ccc1OC` (racemic), at Renin [1], the IC50 was 200 nM.
Same read-out and setting: next, `COCCCOc1cc(C(=O)N(C[C@H]2CNC[C@H]2OCc2ccccc2)C(C)C)ccc1OC` (racemic): 3150 nM.
In the case of `CCOc1ccccc1-c1cccc(CO[C@@H]2CNC[C@H]2CN(C(=O)c2ccc(OC)c(OCCCOC)c2)C(C)C)c1` (racemic), the IC50 at Renin [1] worked out at 550 nM.
As to `COCCCOc1cc(C(=O)N(C[C@@H]2CNC[C@H]2OC(=O)N(C)Cc2cccc3ccccc23)C(C)C)ccc1OC` (racemic), the figures for the IC50 at Renin [2] and at Renin [1] were 35 nM and 45 nM, respectively.
As for `COCCCOc1cc(C(=O)N(C[C@@H]2CNC[C@H]2OCc2ccccc2)C(C)C)ccc1OC` (racemic), the IC50 worked out at 850 nM on Renin [2] and 770 nM at Renin [1]. Also, in series [3], the Ratio is on record as 62.
`COCCCOc1cc(C(=O)N(C[C@@H]2CNC[C@H]2OC(=O)NCc2ccco2)C(C)C)ccc1OC` (racemic): at Renin [1], the concentration for half-maximal inhibition (IC50) is 90 nM.
Still for that read-out and setting: the value for `COCCCOc1cc(C(=O)N(C[C@@H]2CNC[C@H]2OCc2cccc(-c3ccccc3OC)c2)C(C)C)ccc1OC` (racemic) was 65 nM; that for `COCCCOc1cc(C(=O)N(C[C@@H]2CNC[C@H]2OC(=O)N(C)Cc2ccccc2-n2cccc2)C(C)C)ccc1OC` (racemic) was 9 nM.
